US20260242366A1, “STING AGONISTS CONTAINING HYDRAZIDE, HYDRAZINE, AND HYDROXAMIC ACID FUNCTIONAL GROUPS” (BioNTech SE, priority 2023, published 2026)
Read-outs that look alike come from different tables or passages of the source.

How the values were obtained:
[1] = test system: STING signaling (IRF and NFKB-pathway activation) in THP1 Dual Cells; experiment: THP-1 assay (THP1 Dual reporter cells, IRF / NFkB pathway activation); format: cell-based; conditions: Homo sapiens; THP1 Dual cells, 24 h incubation, IRF pathway; read-out: THP-1 EC50 (IRF)
Description: THP1 Dual Cells™, were purchased from Invivogen (Cat. thpd-nfis), and used to determine the biological activity of the compounds on a molecular level and to determine downstream activation of STING signaling (IRF and NFKB-pathway activation). Briefly, cultured cells were seeded on the day of the experiment with a density of 1×10^5 cells per well (96-well format in RPMI supplemented with 25 mM HEPES, 10% heat inactivated FCS,). A serial dilution of the compounds was prepared and added to the cells for a total incubation time of 24 hours. The test items were tested in 8 concentrations to determine a dose-dependent activation of the NFKB and the IRF pathway. After 24 h cells were centrifuged and supernatants harvested for the detection of secreted alkaline phosphatase (measured by QUANTI-Blue™ detection solution; Cat. rep-qbs Invivogen) or lucia luciferase (measured by QUANTI-Luc™ reagent; Cat. rep-qlc1, Invivogen), respectively. The read outs were be performed according to the manufacturer's instructions. EC50 values were calculated using GraphPad Prism 9.

[2] = test system: PBMCs from healthy donors; experiment: PBMC assay, dose-dependent cytokine induction; format: cell-based; conditions: Homo sapiens, 24 h
Description: Compounds I-A to IV were additionally tested on PBMCs from healthy donors to determine the dose-dependent cytokine induction. PBMCs from buffy coats were thawed on the day of the experiment and seeded with a density of 5×10^5 cells per well (96-well format, RPMI with 5% Human Serum+1% MEM Non-Essential Amino Acids+1% Sodium Pyruvate). In line with the experiment above, a serial dilution of the compounds was prepared and added to the cells for 24 hours. On the next days, cells were centrifuged and supernatants harvested for a cytokine readout based on a multiplex assay kit from mesoscale discovery (customized multiplex panel for the cytokines: IFNα2a, IFNβ, TNFα and IL6). Impact on cell viability was determined by CellTiter Glo2.0 from promega (Cat. G9241). Both experimental read outs were performed according to the manufacturer's instructions.

[3] = molecular target: T1, human STING (Homo sapiens, UniProt Q86WV6); experiment: Affinity measurement assay (Biacore T200 SPR); conditions: biotinylated human STING, 25° C., 1:1 binding model, read-out: Affinity (Kd) rhSTING
T1 construct: fused on or other part: His tag; chemically biotinylated (Sulfo-NHS-LC-Biotin) for capture on the chip
T1 sequence (Q86WV6 153-340 limits assumed): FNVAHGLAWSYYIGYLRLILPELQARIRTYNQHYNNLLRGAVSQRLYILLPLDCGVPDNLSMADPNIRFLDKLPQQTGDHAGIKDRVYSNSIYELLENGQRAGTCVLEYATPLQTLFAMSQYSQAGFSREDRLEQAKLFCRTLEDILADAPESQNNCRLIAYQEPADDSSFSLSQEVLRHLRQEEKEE
Description: T7 Shuffle E. coli cells, transformed with an expression vector encoding either a truncated version of human or murine His-tagged STING, were cultivated overnight in 50 mL LB media. 200 mL of LB media were inoculated to an OD600 of 0.05 and cells were grown at 37° C. at 120 rpm until an OD600 of 0.5 was reached. Protein expression was induced using 1 mM IPTG and cells were further cultivated at 30° C. over night. Cells were harvested by centrifugation at 4000 rpm for 30 min at 4° C. and frozen at −80° C. Subsequently, cells were thawed and resuspended in 30 mL IMAC-Buffer A (10 mM HEPES, 50 mM NaCl, 10 mM Imidazole, 250 mM L-Arginine, 10% Glycerol, pH 7.1) supplemented with 15 U/mL benzonase, 0.2 mg/mL MgCl2 and 0.1 mg/mL lysozyme. Lysis was performed by five sonification cycles with an amplitude of 25% and a pulse for 2 s, with 5 min incubation on ice between cycles. The lysate was centrifuged for 15 min at 16.000 g and the supernatant was filtrated (0.22 μm). Purification of STING was done using an ÄKTA prime chromatography system. A 1 mL His Trap excel column was equilibrated with IMAC-Buffer A before lysate was applied. After washing with multiple column volumes of buffer, STING was eluted using a linear gradient of IMAC-Buffer B (10 mM HEPES, 50 mM NaCl, 500 mM Imidazole, 250 mM L-Arginine, 10% Glycerol, pH 7.1). Elution fractions were analyzed by SDS-PAGE and STING containing fractions were mixed. Using the Äkta pure system in combination with a HiLoad Superdex 16/600 75 pg column, STING was further purified by preparative size-exclusion chromatography. Fractions were analyzed by SDS-PAGE and STING containing fractions were combined.
Purified proteins were biotinylated using EZ-Link Sulfo-NHS-LC-Biotin (Life Technologies GmbH) in ten-fold excess for 2 h on ice. The reaction was quenched by addition of 100 mM Tris pH8 and 1 h incubation on ice. Remaining biotin was removed by performing buffer exchange to PBS using Zeba Spin Desalting Columns, 7K MWCO, 0.5 mL (Thermo Fischer). Protein concentrations were determined using the Nanodrop system.
Affinity measurement of STING-binding compounds were performed using the Biacore T200 SPR system (GE Healthcare, Biacore T200 control Software 3.2). Therefore, the Biotin CAPture kit, series S (Cytiva Europe, Cat.no. 28920234) was utilized. A freshly docked Biotin CAPture chip was rehydrated overnight in the instrument (standby mode). The following day, the chip surface was conditioned three times with regeneration solution (6 M guanidine-HCl, 0.25 M NaOH) for 60 s at 10 μL/min on flow cell (FC) 1 and FC2. Subsequently, the Biotin CAPture reagent (Cytiva Europe, Cat.no. 29423383) was applied for 300 s at 2 μL/min on FC1 and FC2, followed by capturing of 100 nM biotinylated murine or 150 nM biotinylated human STING, respectively. […]

[4] = test system: 4T1 cells; experiment: Anti-tumoral efficacy in murine 4T1 breast cancer model; format: in vivo, Balb/c Rj mice
Description: The anti-tumoral efficacy of compound I-D was tested in a murine 4T1 breast cancer model. Balb/c Rj mice were injected subcutaneously with 1×10^5 4T1 cells. Three doses of compound I-D formulated in 5% Solutol in 2.5% glucose (31 nmol, 3.1 nmol and 0.31 nmol) or the vehicle control (5% Solutol in 2.5% glucose) were administered intratumorally at days 11, 16 and 21 after inoculation. Tumor size was monitored using BioVolume® (calculating the tumor size based on RGB, thermal and 3D model data) until day 21, when animals were sacrificed and tumor cytokines were analyzed compared to serum 3 h after final agonist injection. To evaluate the statistical significance of tumor volume reduction compared to the vehicle control, a 2way ANOVA test was used: *** p<0.0001.

[5] = IFNα in supernatant, read-out: PBMC EC50 (μM) for IFNα
[6] = IFNβ in supernatant, read-out: PBMC EC50 (μM) for IFNβ
[7] = tumor, 3 h after final agonist injection, day 21

Compound	EC50 [1] [nM]	EC50 [2, 5] [µM]	EC50 [2, 6] [µM]	Kd [3] [nM]	Tumor size (BioVolume) compared to vehicle control ([4]; 31, 3.1 and 0.31 nmol intratumorally at days 11, 16 and 21, until day 21)	IFNα level in the tumor compared to diABZI [4, 7]	IFNγ level in the tumor compared to diABZI [4, 7]
CCn1nc(C)cc1C(=O)Nc1nc2cc(C(=O)NNC)cc(OC)c2n1C/C=C/Cn1c(NC(=O)c2cc(C)nn2CC)nc2cc(C(N)=O)cc(OCCCN3CCOCC3)c21 [II-B]	2740	1.95	1.16	0.959			
CCn1nc(C)cc1C(=O)Nc1nc2cc(C(N)=O)cc(OC)c2n1C/C=C/Cn1c(NC(=O)c2cc(C)nn2CC)nc2cc(C(=O)NN)cc(OCCCN3CCOCC3)c21 [III]			0.387	0.319			
CCn1nc(C)cc1C(=O)Nc1nc2cc(C(=O)N(C)NC)cc(OC)c2n1C/C=C/Cn1c(NC(=O)c2cc(C)nn2CC)nc2cc(C(N)=O)cc(OCCCN3CCOCC3)c21 [II-D]		1.14	0.821	2.91			
CCn1nc(C)cc1C(=O)Nc1nc2cc(C(N)=O)cc(OC)c2n1C/C=C/Cn1c(NC(=O)c2cc(C)nn2CC)nc2cc(C(N)=O)cc(OCCCC(=O)N(C)NC)c21 [I-D]		0.26	0.265	0.00413	marked decrease in tumor size	higher levels	higher levels
